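Exposure lasted 48 hours, with cells grown in 96-well plates and compounds tested at five concentrations. TGI: concentration producing complete growth inhibition.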
Columns and labels:
Assay in all cases: growth of human tumour cells (NCI), 48 h
[1] = test system: MDA-N
[2] = test system: HOP-92 NSCLC
[3] = test system: SF-295 CNS
[4] = test system: U251 CNS
[5] = test system: TK-10 renal
[6] = test system: SNB-19 CNS
[7] = test system: A498 renal
[8] = test system: SK-OV-3 ovarian
[9] = test system: OVCAR-4 ovarian
[10] = test system: EKVX NSCLC
[11] = test system: RXF 393 renal
[12] = test system: NCI-H522 lung
[13] = test system: SK-MEL-5 melanoma
[14] = test system: UO-31 renal
[15] = test system: UACC-62 melanoma
[16] = test system: LOX IMVI melanoma
[17] = test system: HOP-62 NSCLC
[18] = test system: SK-MEL-2 melanoma
[19] = test system: M14 melanoma
[20] = test system: HL-60(TB) leukemia
[21] = test system: T-47D breast
[22] = test system: BT-549 breast
[23] = test system: OVCAR-8 ovarian
[24] = test system: NCI-H226 lung
[25] = test system: MDA-MB-231 breast
[26] = test system: CCRF-CEM leukemia
[27] = test system: A549 NSCLC
[28] = test system: HS 578T breast
[29] = test system: HCT-116 colon
[30] = test system: SW-620 colon
[31] = test system: NCI-H23 lung
[32] = test system: MDA-MB-435
[33] = test system: SF-539 CNS
[34] = test system: OVCAR-3 ovarian
[35] = test system: 786-0 renal
[36] = test system: PC-3 prostate
[37] = test system: CAKI-1 renal
[38] = test system: HCT-15 colon
[39] = test system: HCC-2998 colon
[40] = test system: COLO 205 colon
[41] = test system: SK-MEL-28 melanoma
[42] = test system: SNB-75 CNS
[43] = test system: MALME-3M melanoma
[44] = test system: IGROV1 ovarian
[45] = test system: SF-268 CNS
[46] = test system: UACC-257 melanoma
[47] = test system: SR leukemia
[48] = test system: NCI-H460 lung
[49] = test system: MOLT-4 leukemia
[50] = test system: K-562 leukemia
[51] = test system: ACHN renal
[52] = test system: HT29 colon
[53] = test system: RPMI-8226 leukemia
[54] = test system: KM12 colon
[55] = test system: DU-145 prostate
[56] = test system: NCI/ADR-RES ovarian
[57] = test system: OVCAR-5 ovarian
[58] = test system: SN12C renal
[59] = test system: MCF7 breast

Compound: COn1cc(C=O)c2ccccc21
- TGI [1]: 62.7 µM
- TGI [2]: > 100 µM
- TGI [3]: > 95.9 µM
- TGI [4]: > 100 µM
- TGI [5]: > 93 µM
- TGI [6]: > 100 µM
- TGI [7]: 3.97 µM
- TGI [8]: > 100 µM
- TGI [9]: > 100 µM
- TGI [10]: > 100 µM
- TGI [11]: > 100 µM
- TGI [12]: > 100 µM
- TGI [13]: > 100 µM
- TGI [14]: > 100 µM
- TGI [15]: > 100 µM
- TGI [16]: > 100 µM
- TGI [17]: > 100 µM
- TGI [18]: > 100 µM
- TGI [19]: > 100 µM
- TGI [20]: 1.52 µM
- TGI [21]: > 100 µM
- TGI [22]: > 100 µM
- TGI [23]: > 100 µM
- TGI [24]: > 84.9 µM
- TGI [25]: > 100 µM
- TGI [26]: 1.34 µM
- TGI [27]: > 100 µM
- TGI [28]: > 100 µM
- TGI [29]: > 100 µM
- TGI [30]: > 100 µM
- TGI [31]: > 100 µM
- TGI [32]: 34.9 µM
- TGI [33]: > 100 µM
- TGI [34]: > 100 µM
- TGI [35]: > 100 µM
- TGI [36]: > 100 µM
- TGI [37]: > 100 µM
- TGI [38]: > 100 µM
- TGI [39]: 53.7 µM
- TGI [40]: > 100 µM
- TGI [41]: > 100 µM
- TGI [42]: > 95.1 µM
- TGI [43]: > 100 µM
- TGI [44]: > 100 µM
- TGI [45]: > 100 µM
- TGI [46]: > 100 µM
- TGI [47]: > 71.4 µM
- TGI [48]: > 100 µM
- TGI [49]: > 100 µM
- TGI [50]: > 100 µM
- TGI [51]: > 100 µM
- TGI [52]: > 100 µM
- TGI [53]: > 100 µM
- TGI [54]: > 56.5 µM
- TGI [55]: > 100 µM
- TGI [56]: > 100 µM
- TGI [57]: > 100 µM
- TGI [58]: > 100 µM
- TGI [59]: > 100 µM

Compound: O=C(NCCCNC(=O)c1ccc2c(O)c(O)ccc2c1)c1ccc2c(O)c(O)ccc2c1
- TGI [1]: 41.4 µM
- TGI [2]: > 100 µM
- TGI [3]: 38.2 µM
- TGI [4]: 64.4 µM
- TGI [5]: > 85.6 µM
- TGI [6]: > 70.9 µM
- TGI [7]: 98 µM
- TGI [8]: > 100 µM
- TGI [9]: > 100 µM
- TGI [10]: > 79.9 µM
- TGI [11]: > 70 µM
- TGI [12]: 48.5 µM
- TGI [13]: 46.9 µM
- TGI [14]: 65.7 µM
- TGI [15]: > 90 µM
- TGI [16]: > 100 µM
- TGI [17]: 48.1 µM
- TGI [18]: > 81.6 µM
- TGI [19]: 78.8 µM
- TGI [20]: > 100 µM
- TGI [21]: > 100 µM
- TGI [22]: 35.2 µM
- TGI [23]: 99.1 µM
- TGI [24]: > 100 µM
- TGI [25]: > 73.4 µM
- TGI [26]: > 100 µM
- TGI [27]: > 100 µM
- TGI [28]: 56.1 µM
- TGI [29]: > 94.4 µM
- TGI [30]: > 62.2 µM
- TGI [31]: 52.8 µM
- TGI [32]: 36.1 µM
- TGI [33]: > 100 µM
- TGI [34]: 56.5 µM
- TGI [35]: 57.9 µM
- TGI [36]: > 100 µM
- TGI [37]: > 100 µM
- TGI [38]: > 72.5 µM
- TGI [39]: > 100 µM
- TGI [40]: 50.6 µM
- TGI [41]: > 100 µM
- TGI [42]: 42.5 µM
- TGI [43]: > 100 µM
- TGI [44]: 40.8 µM
- TGI [45]: 58.1 µM
- TGI [46]: 53 µM
- TGI [47]: > 90.7 µM
- TGI [49]: 52.3 µM
- TGI [50]: > 78.7 µM
- TGI [51]: 55.9 µM
- TGI [52]: > 64.8 µM
- TGI [53]: > 100 µM
- TGI [54]: 39.7 µM
- TGI [55]: > 100 µM
- TGI [56]: > 100 µM
- TGI [57]: > 74.4 µM
- TGI [58]: 52.2 µM
- TGI [59]: > 100 µM

Compound: CC(C)c1ccccc1S(=O)c1ccccc1C(C)(C)O (centres undefined)
- TGI [1]: > 100 µM
- TGI [2]: > 100 µM
- TGI [3]: 48.1 µM
- TGI [4]: 39.1 µM
- TGI [5]: > 100 µM
- TGI [6]: > 100 µM
- TGI [7]: 40.8 µM
- TGI [8]: > 100 µM
- TGI [9]: > 100 µM
- TGI [10]: > 100 µM
- TGI [11]: > 100 µM
- TGI [12]: > 100 µM
- TGI [13]: 81.5 µM
- TGI [15]: > 100 µM
- TGI [16]: > 100 µM
- TGI [17]: 48.7 µM
- TGI [18]: > 100 µM
- TGI [19]: > 100 µM
- TGI [20]: > 100 µM
- TGI [21]: > 100 µM
- TGI [22]: > 100 µM
- TGI [23]: > 100 µM
- TGI [24]: 41.8 µM
- TGI [25]: > 100 µM
- TGI [26]: > 100 µM
- TGI [27]: > 100 µM
- TGI [28]: > 100 µM
- TGI [29]: > 100 µM
- TGI [30]: > 100 µM
- TGI [31]: > 100 µM
- TGI [32]: > 100 µM
- TGI [33]: > 100 µM
- TGI [34]: > 100 µM
- TGI [35]: > 100 µM
- TGI [36]: > 100 µM
- TGI [37]: > 100 µM
- TGI [38]: > 100 µM
- TGI [40]: > 100 µM
- TGI [41]: > 100 µM
- TGI [42]: > 100 µM
- TGI [43]: > 100 µM
- TGI [44]: > 100 µM
- TGI [45]: > 100 µM
- TGI [46]: > 100 µM
- TGI [47]: > 100 µM
- TGI [48]: > 100 µM
- TGI [49]: > 100 µM
- TGI [50]: > 100 µM
- TGI [51]: > 100 µM
- TGI [52]: > 100 µM
- TGI [53]: > 100 µM
- TGI [54]: > 100 µM
- TGI [55]: > 100 µM
- TGI [56]: > 100 µM
- TGI [57]: > 100 µM
- TGI [58]: > 100 µM
- TGI [59]: > 100 µM

Source: PubChem BioAssay (NCI)
